The target in assay [1] is T1, Platelet-activating factor receptor (Homo sapiens, UniProt P25105). Put plainly: In vitro inhibition of [3H]-C18 PAF binding to human platelet membrane Platelet activating factor receptor. Details: concentration or dose not given beside the values. To be noted: concentration not given here.
In assay [2] the target is Platelet-activating factor receptor (Rattus norvegicus) (UniProt P46002). Nature of the assay: In vivo inhibition of 10 nmole/kg PAF-induced plasma N-acetyl-beta-glucosaminidase (NAGA) after oral administration to rats. The assay is classed as organism-based. Details: concentration or dose not given beside the values.
Chain of Platelet-activating factor receptor (Rattus norvegicus) (P46002 whole entry): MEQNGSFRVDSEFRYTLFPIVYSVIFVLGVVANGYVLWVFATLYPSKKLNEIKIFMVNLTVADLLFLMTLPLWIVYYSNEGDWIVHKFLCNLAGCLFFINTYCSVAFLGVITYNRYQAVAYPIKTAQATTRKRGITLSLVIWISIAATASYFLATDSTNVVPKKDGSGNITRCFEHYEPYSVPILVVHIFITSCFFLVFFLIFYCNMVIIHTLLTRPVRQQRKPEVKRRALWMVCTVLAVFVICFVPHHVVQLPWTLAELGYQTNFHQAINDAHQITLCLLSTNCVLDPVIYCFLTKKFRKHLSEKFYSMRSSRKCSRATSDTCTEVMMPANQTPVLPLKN
For assay [3] the target is unchanged. Nature of the assay: In vivo inhibition of 10 nmole/kg PAF-induced hemoconcentration was determined at 1 mg/kg peroral administration. The assay is classed as functional, organism-based. Further details: dose 1 mg/kg.
Assay [4] has as its system Rattus norvegicus. Nature of the assay: In vivo inhibition of 10 nmole/kg PAF-induced hemoconcentration was determined at 1 mg/kg peroral administration in rats. The assay is classed as functional. Particulars: route oral.
Assay [5] deals with T1, Platelet-activating factor receptor. Nature of the assay: In vitro inhibition of [3H]-C18 PAF binding to human platelet membrane Platelet activating factor receptor was determined.
The species named for a further assay is Homo sapiens. Nature of the assay: Inhibitory activity of compound was determined by 3E-7M PAF-induced degranulation of PAFas measured by myeloperoxidase secretion. The assay is classed as functional.
The target of assay [6] is T1, Platelet-activating factor receptor. Put plainly: Compound was evaluated for inhibition of binding of [3H]-C18 PAF to human platelet membrane Platelet activating factor receptor.
Assay [7] shares this target. Nature of the assay: Compound was evaluated for inhibitory activity of binding of [3H]-C18 PAF to human platelet membrane Platelet activating factor receptor.
The test system of assay [8] is Rattus norvegicus. Put plainly: Drop in blood pressure was observed after 15 minutes of intravenous administration of 0.2 mg/kg compound. The assay is classed as functional.
The test system of assay [9] is Rattus norvegicus. Nature of the assay: Compound inhibits 10 nmole/kg PAF-induced hemoconcentration and plasma N-acetyl-beta-glucosaminidase increase in male rats. The assay is classed as functional.
In assay [10] the test system is Rattus norvegicus. Nature of the assay: Compound inhibits 10 nmole/kg PAF-induced hemoconcentration and plasma N-acetyl-beta-glucosaminidase increase in female rats. The assay is classed as functional.

The values that follow come from ChEMBL document CHEMBL1126400, “Synthesis and biological activity of the platelet-activating factor antagonist ()-trans-2-(3-methoxy-4-phenylsulfonylethoxy-5-n-propylsulfonylphenyl)-5-(3,4,5-trimethoxyphenyl)tetrahydrofuran (L-671,284) and its analogs” (Bioorg Med Chem Lett, 1992).

As usually defined, the inhibition is the change of the read-out against control, counted positive when it falls. The inhibition in vivo is the change of the read-out against control, counted positive when it falls. A word on the Ki: it is the dissociation constant of the complex between target and ligand, obtained from inhibition or displacement. As a reminder, the IC50 is the concentration at which inhibition is half-maximal. For orientation: ED50 means the midpoint of the dose-response relation.

T1 sequence (P25105 whole entry): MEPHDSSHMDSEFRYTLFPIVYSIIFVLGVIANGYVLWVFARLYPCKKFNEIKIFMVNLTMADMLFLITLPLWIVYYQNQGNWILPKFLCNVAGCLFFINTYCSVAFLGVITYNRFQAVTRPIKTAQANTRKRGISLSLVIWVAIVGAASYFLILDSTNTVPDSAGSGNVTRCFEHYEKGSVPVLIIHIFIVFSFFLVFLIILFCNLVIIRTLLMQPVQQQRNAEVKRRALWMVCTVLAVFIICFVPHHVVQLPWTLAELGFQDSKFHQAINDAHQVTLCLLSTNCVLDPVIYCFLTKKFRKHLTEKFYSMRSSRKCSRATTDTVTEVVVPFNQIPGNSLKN

As for `CCCS(=O)(=O)c1cc(C2CC[C@@H](c3cc(OC)c(OC)c(OC)c3)O2)cc(OC)c1OCCSc1ccc(C(=O)O)cc1` (some centres not stated), the figures for the inhibition in assay [1], in [2] and in assay [3] were 38%, 23% and 11%, respectively.
The matching figures for `CCCS(=O)(=O)c1cc(C2CC[C@@H](c3cc(OC)c(OC)c(OC)c3)O2)cc(OC)c1OCCSc1ncc[nH]1` (some centres not stated): 60%, 13% and 11%.
`CCCS(=O)(=O)c1cc(C2CC[C@@H](c3cc(OC)c(OC)c(OC)c3)O2)cc(OC)c1OCCSc1ccncc1` (some centres not stated): the inhibition turned out to be 73% in [1], 15% in assay [2] and 15% in assay [3].
In assay [1], `CCCS(=O)(=O)c1cc(C2CC[C@@H](c3cc(OC)c(OC)c(OC)c3)O2)cc(OC)c1OCCS(=O)(=O)c1ccc(N)cc1` (some centres not stated) had an inhibition of 41%.
Consider `CCCS(=O)(=O)c1cc(C2CC[C@@H](c3cc(OC)c(OC)c(OC)c3)O2)cc(OC)c1OCCSc1ccccc1` (some centres not stated), for which the inhibition was determined as 93% in [1], 84% in [2] and 95% in assay [3].
Consider `CCCS(=O)(=O)c1cc(C2CC[C@@H](c3cc(OC)c(OC)c(OC)c3)O2)cc(OC)c1OCCSc1cccc(N)c1` (some centres not stated), for which the values for the inhibition in [1] and in [2] were 80% and 4%, respectively. In addition, at 1 mg/kg the inhibition in vivo in the assay with Rattus norvegicus [4] was 7%.
On to `CCCOc1c(OC)cc([C@H]2CC[C@H](c3cc(OC)c(OC)c(OC)c3)O2)cc1S(C)(=O)=O` (single isomer, unassigned), for which, in assay [5], the Ki came out at 14.3 nM.
On to `CCCS(=O)(=O)c1cc(C2CC[C@@H](c3cc(OC)c(OC)c(OC)c3)O2)cc(OC)c1OCCSc1cccc(O)c1` (some centres not stated), for which the figures for the inhibition in assay [1], in [2] and in [3] were 61%, 29% and 27%, respectively.
On to `CCCS(=O)(=O)c1cc(C2CC[C@@H](c3cc(OC)c(OC)c(OC)c3)O2)cc(OC)c1OCCSc1ccccc1N` (some centres not stated), for which, in assay [1], the inhibition came out at 57%.
Take `CCCS(=O)(=O)c1cc(C2CC[C@@H](c3cc(OC)c(OC)c(OC)c3)O2)cc(OC)c1OCCS(=O)(=O)c1ccc(O)cc1` (some centres not stated): the values for the inhibition in assay [1] and in assay [2] were 88% and 13%, respectively. For the same compound, in the assay with Rattus norvegicus [4], the inhibition in vivo at 1 mg/kg was determined as 7%.
As for `CCCS(=O)(=O)c1cc(C2CC[C@@H](c3cc(OC)c(OC)c(OC)c3)O2)cc(OC)c1OCCS(=O)(=O)c1ccc(C#N)cc1` (some centres not stated), the inhibition was found to be 69% in assay [1], 1% in assay [2] and 0% in [3].
The like results for `CCCS(=O)(=O)c1cc(C2CC[C@@H](c3cc(OC)c(OC)c(OC)c3)O2)cc(OC)c1OCCSc1ccc(C#N)cc1` (some centres not stated) were, in that order, 93%, 39% and 33%.
`CCCS(=O)(=O)c1cc(C2CC[C@@H](c3cc(OC)c(OC)c(OC)c3)O2)cc(OC)c1OCCSc1ccc(C(N)=O)cc1` (some centres not stated): the inhibition in [1] is 70%; in assay [2], 32%; in assay [3], 26%.
The like results for `CCCS(=O)(=O)c1cc(C2CC[C@@H](c3cc(OC)c(OC)c(OC)c3)O2)cc(OC)c1OCCSc1ccc(O)cc1` (some centres not stated) were, in that order, 100%, 75% and 63%.
The matching figures for `CCCS(=O)(=O)c1cc(C2CC[C@@H](c3cc(OC)c(OC)c(OC)c3)O2)cc(OC)c1OCC[S+]([O-])c1ccc(C#N)cc1` (some centres not stated): 74%, 0% and 5%.
Turning to `CCCS(=O)(=O)c1cc(C2CC[C@@H](c3cc(OC)c(OC)c(OC)c3)O2)cc(OC)c1OCCSc1ccc(N)cc1` (some centres not stated), the inhibition amounted to 60% in assay [1] and 58% in assay [2]. For the same compound, 1 mg/kg produced 56% inhibition in vivo with Rattus norvegicus [4].
As for `CCCS(=O)(=O)c1cc(C2CC[C@@H](c3cc(OC)c(OC)c(OC)c3)O2)cc(OC)c1OCCSc1ccc(N(C)C)cc1` (some centres not stated), the inhibition came to 66% in assay [1], 57% in assay [2] and 66% in [3].
Turning to `CCCS(=O)(=O)c1cc(C2CC[C@@H](c3cc(OC)c(OC)c(OC)c3)O2)cc(OC)c1OCCS(=O)(=O)c1ccccc1` (some centres not stated), the IC50 worked out at 0.78 nM in the assay filed under Homo sapiens and 1 nM in [7]. The affinity in assay [6] corresponds to a Ki of 1 nM. Further, the inhibition in assay [1] is 72%; in assay [2], 94%; in [3] it was 94%. In the assay on Rattus norvegicus [8], the “Decrease in blood pressure” value amounted to 79 mmHg. Moreover, the 50% effective dose (ED50) in the assay with Rattus norvegicus [9] amounted to 0.26 mg/kg; in the assay on Rattus norvegicus [10], 0.22 mg/kg.
Take `CCCS(=O)(=O)c1cc(C2CC[C@@H](c3cc(OC)c(OC)c(OC)c3)O2)cc(OC)c1OCC[S+]([O-])c1ccc(O)cc1` (some centres not stated): the values for the inhibition in assay [1] and in [2] were 73% and 44%, respectively. This compound came in with an inhibition in vivo at 1 mg/kg in the assay with Rattus norvegicus [4] of 25%.
Regarding `CCCS(=O)(=O)c1cc(C2CC[C@@H](c3cc(OC)c(OC)c(OC)c3)O2)cc(OC)c1OCCS(=O)(=O)c1ccncc1` (some centres not stated), the inhibition in [1] stood at 45%; in assay [2] it was 5%; in assay [3], 0%.
Consider `CCCS(=O)(=O)c1cc(C2CC[C@@H](c3cc(OC)c(OC)c(OC)c3)O2)cc(OC)c1OCCSc1ccccc1O` (some centres not stated), for which the inhibition in assay [1] was determined as 58%.
Take `CCCS(=O)(=O)c1cc(C2CC[C@@H](c3cc(OC)c(OC)c(OC)c3)O2)cc(OC)c1OCC[S+]([O-])c1ccc(N)cc1` (some centres not stated): the inhibition in assay [1] was 0%.
